The values that follow come from US9932314B2, “Pyrazole compounds and their use as T-type calcium channel blockers” (IDORSIA PHARMACEUTICALS LTD, priority 2015, dated 2018).

T1 sequence (O95180 whole entry): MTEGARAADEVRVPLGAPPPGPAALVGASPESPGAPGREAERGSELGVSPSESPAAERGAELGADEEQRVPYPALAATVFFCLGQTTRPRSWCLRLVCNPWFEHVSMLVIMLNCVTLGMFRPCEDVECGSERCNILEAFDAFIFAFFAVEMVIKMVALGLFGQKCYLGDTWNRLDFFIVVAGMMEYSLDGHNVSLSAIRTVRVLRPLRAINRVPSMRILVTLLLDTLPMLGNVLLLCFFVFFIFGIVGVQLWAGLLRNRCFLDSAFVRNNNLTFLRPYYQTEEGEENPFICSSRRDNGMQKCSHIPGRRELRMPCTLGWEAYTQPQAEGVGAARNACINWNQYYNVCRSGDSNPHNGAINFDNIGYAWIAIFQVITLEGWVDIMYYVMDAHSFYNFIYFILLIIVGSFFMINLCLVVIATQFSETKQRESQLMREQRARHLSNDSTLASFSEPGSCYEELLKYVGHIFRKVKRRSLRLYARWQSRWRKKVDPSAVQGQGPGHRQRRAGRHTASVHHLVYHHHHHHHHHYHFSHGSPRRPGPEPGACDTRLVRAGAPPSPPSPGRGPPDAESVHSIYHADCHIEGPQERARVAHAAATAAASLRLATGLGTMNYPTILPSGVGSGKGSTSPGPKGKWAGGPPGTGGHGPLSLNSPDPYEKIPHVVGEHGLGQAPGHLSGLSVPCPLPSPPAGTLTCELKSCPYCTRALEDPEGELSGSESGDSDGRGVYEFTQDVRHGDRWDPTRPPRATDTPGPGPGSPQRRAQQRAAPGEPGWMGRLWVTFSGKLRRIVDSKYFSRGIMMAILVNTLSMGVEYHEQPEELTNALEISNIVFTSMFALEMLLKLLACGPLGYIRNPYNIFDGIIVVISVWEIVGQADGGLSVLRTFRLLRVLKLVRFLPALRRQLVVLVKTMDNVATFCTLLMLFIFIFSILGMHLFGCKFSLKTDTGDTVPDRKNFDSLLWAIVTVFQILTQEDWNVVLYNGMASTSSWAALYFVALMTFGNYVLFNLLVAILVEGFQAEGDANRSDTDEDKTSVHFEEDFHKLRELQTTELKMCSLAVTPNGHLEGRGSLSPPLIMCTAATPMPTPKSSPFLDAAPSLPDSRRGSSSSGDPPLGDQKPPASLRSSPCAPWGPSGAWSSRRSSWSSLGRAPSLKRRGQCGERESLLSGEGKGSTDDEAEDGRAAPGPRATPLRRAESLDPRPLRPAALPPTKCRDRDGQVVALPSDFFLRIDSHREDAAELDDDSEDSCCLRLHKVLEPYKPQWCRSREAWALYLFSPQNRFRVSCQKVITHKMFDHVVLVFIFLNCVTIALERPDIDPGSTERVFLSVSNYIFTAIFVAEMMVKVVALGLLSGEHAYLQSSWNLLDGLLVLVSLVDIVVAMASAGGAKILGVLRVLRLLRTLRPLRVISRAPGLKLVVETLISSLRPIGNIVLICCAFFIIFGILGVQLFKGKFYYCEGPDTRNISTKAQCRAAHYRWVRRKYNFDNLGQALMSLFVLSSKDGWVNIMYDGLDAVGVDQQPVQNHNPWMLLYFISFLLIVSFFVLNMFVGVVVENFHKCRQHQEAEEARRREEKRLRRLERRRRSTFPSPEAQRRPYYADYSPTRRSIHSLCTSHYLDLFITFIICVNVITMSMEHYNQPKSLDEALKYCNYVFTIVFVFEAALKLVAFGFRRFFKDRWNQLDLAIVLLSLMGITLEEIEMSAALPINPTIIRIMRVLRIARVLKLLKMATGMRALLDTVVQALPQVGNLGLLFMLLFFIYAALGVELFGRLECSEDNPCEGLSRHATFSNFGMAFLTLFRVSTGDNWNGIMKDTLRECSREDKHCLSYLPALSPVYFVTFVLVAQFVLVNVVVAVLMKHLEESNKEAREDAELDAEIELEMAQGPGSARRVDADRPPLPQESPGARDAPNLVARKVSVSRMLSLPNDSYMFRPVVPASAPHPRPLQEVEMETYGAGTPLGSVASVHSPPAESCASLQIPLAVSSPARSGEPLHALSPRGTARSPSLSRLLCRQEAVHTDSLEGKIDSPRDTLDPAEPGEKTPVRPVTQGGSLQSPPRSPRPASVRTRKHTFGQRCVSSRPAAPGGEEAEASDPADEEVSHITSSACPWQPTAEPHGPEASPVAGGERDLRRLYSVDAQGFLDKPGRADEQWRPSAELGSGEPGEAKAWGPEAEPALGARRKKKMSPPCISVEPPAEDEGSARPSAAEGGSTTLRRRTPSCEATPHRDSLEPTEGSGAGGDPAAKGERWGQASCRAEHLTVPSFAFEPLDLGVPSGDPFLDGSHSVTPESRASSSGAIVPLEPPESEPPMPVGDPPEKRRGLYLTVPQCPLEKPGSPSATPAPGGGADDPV

The test addresses T1, voltage-dependent T-type calcium channel subunit alpha-1G (Cav3.2) (Homo sapiens, UniProt O95180).
T1 construct: expressed in transfected cells; host or cells: HEK293
Briefly: FLIPR calcium flux assay, HEK293 cells recombinantly expressing Cav3.2. Conditions: Cav3.2-channel, Fluo-4-AM, 3 min incubation, stimulation with 10 mM CaCl2. It is filed as cell-based. In a few lines:
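HEK293 cells stably expressing human Cav3.2 were loaded with Fluo-4-AM. Compounds diluted in TEAC buffer (pH 7.2) were preincubated for 3 min, then Ca2+ entry was triggered by 10 mM final CaCl2. Inhibition curves were fitted sigmoidally to the area under the fluorescence trace.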
For the compound `N#Cc1ccc(Cn2ccc(NC(=O)Cc3ccc(N4CCC4)nc3)n2)nc1` [Example 102, 2-(6-Azetidin-1-yl-pyridin-3-yl)-N-[1-(5-cyano-pyridin-2-ylmethyl)-1H-pyrazol-3-yl]-acetamide], the 50% inhibitory concentration (IC50) (usually the concentration needed to halve the response being measured) was found to be 7.05 µM.
The value for `O=C(Cc1ccc(N2CCC2)nc1)Nc1ccn(Cc2ccc(F)cc2)n1` [Example 103, 2-(6-Azetidin-1-yl-pyridin-3-yl)-N-[1-(4-fluoro-benzyl)-1H-pyrazol-3-yl]-acetamide] was 0.145 µM.
For the compound `COCCOc1ccc(Cn2ccc(NC(=O)Cc3ccc(C(C)C)cc3)n2)nc1` [Example 104, 2-(4-Isopropyl-phenyl)-N-{1-[5-(2-methoxy-ethoxy)-pyridin-2-ylmethyl]-1H-pyrazol-3-yl}-acetamide], the IC50 came to 4.52 µM.
The value for `CC(C)Oc1ccc(Cn2ccc(NC(=O)Cc3ccc(C(C)C)cc3)n2)nc1` [Example 105, N-[1-(5-Isopropoxy-pyridin-2-ylmethyl)-1H-pyrazol-3-yl]-2-(4-isopropyl-phenyl)-acetamide] was 0.031 µM; that for `CC(C)c1ccc(CC(=O)Nc2ccn(Cc3ccc(F)cn3)n2)cc1` [Example 106, N-[1-(5-Fluoro-pyridin-2-ylmethyl)-1H-pyrazol-3-yl]-2-(4-isopropyl-phenyl)-acetamide] was 0.015 µM.
Consider `CC(C)c1ccc(CC(=O)Nc2ccn(Cc3ccc(N(C)C)cn3)n2)cc1` [Example 107, N-[1-(5-Dimethylamino-pyridin-2-ylmethyl)-1H-pyrazol-3-yl]-2-(4-isopropyl-phenyl)-acetamide], for which the IC50 was 0.338 µM.
Take `CC(C)c1ccc(CC(=O)Nc2ccn(Cc3ccc(N4CC[C@H](F)C4)cn3)n2)cc1` [Example 108, N-{1-[5-((S)-3-Fluoro-pyrrolidin-1-yl)-pyridin-2-ylmethyl]-1H-pyrazol-3-yl}-2-(4-isopropyl-phenyl)-acetamide]: the IC50 amounted to 0.322 µM.
Take `CC(C)c1ccc(CC(=O)Nc2ccn(Cc3ccc(C(F)(F)F)cn3)n2)cc1` [Example 109, 2-(4-Isopropyl-phenyl)-N-[1-(5-trifluoromethyl-pyridin-2-ylmethyl)-1H-pyrazol-3-yl]-acetamide]: the IC50 was 0.022 µM.
For `CC(C)c1ccc(CC(=O)Nc2ccn(Cc3ccc(C#N)c(Cl)n3)n2)cc1` [Example 110, N-[1-(6-Chloro-5-cyano-pyridin-2-ylmethyl)-1H-pyrazol-3-yl]-2-(4-isopropyl-phenyl)-acetamide], the IC50 was determined as 0.014 µM.
The figure for `N#Cc1ccc(Cn2ccc(NC(=O)Cc3ccc(N4CCC4)nc3)n2)cc1` [Example 111, 2-(6-Azetidin-1-yl-pyridin-3-yl)-N-[1-(4-cyano-benzyl)-1H-pyrazol-3-yl]-acetamide] is 1.33 µM.
The value for `CCN(CC)c1ccc(CC(=O)Nc2ccn(Cc3ccc(OC)cc3)n2)cc1` [Example 112, 2-(4-Diethylamino-phenyl)-N-[1-(4-methoxy-benzyl)-1H-pyrazol-3-yl]-acetamide] was 0.021 µM; that for `CCN(CC)c1ccc(CC(=O)Nc2ccn(Cc3ccc(F)c(F)c3)n2)cc1` [Example 113, 2-(4-Diethylamino-phenyl)-N-[1-(3,4-difluoro-benzyl)-1H-pyrazol-3-yl]-acetamide] was 0.0048 µM.
The figure for `CCN(CC)c1ccc(CC(=O)Nc2ccn(Cc3ccc(C#N)cc3)n2)cc1` [Example 114, N-[1-(4-Cyano-benzyl)-1H-pyrazol-3-yl]-2-(4-diethylamino-phenyl)-acetamide] is 0.014 µM; for `CCc1nc(Cn2ccc(NC(=O)Cc3ccc(C(C)C)cc3)n2)ccc1C#N` [Example 115, N-[1-(5-Cyano-6-ethyl-pyridin-2-ylmethyl)-1H-pyrazol-3-yl]-2-(4-isopropyl-phenyl)-acetamide] it is 0.057 µM; for `COc1nc(Cn2ccc(NC(=O)Cc3ccc(C(C)C)cc3)n2)ccc1C#N` [Example 116, N-[1-(5-Cyano-6-methoxy-pyridin-2-ylmethyl)-1H-pyrazol-3-yl]-2-(4-isopropyl-phenyl)-acetamide] it is 0.075 µM.
Turning to `CC(C)c1ccc(CC(=O)Nc2ccn(Cc3ccc(C#N)c(OCC(F)(F)F)n3)n2)cc1` [Example 117, N-{1-[5-Cyano-6-(2,2,2-trifluoro-ethoxy)-pyridin-2-ylmethyl]-1H-pyrazol-3-yl}-2-(4-isopropyl-phenyl)-acetamide], the IC50 was 0.332 µM.
For the compound `CC(C)Oc1nc(Cn2ccc(NC(=O)Cc3ccc(C(C)C)cc3)n2)ccc1C#N` [Example 118, N-[1-(5-Cyano-6-isopropoxy-pyridin-2-ylmethyl)-1H-pyrazol-3-yl]-2-(4-isopropyl-phenyl)-acetamide], the IC50 worked out at 0.097 µM.
On to `N#Cc1ccc(Cn2ccc(NC(=O)Cc3ccc(N4CCC(F)(F)C4)nc3)n2)nc1` [Example 119, N-[1-(5-Cyano-pyridin-2-ylmethyl)-1H-pyrazol-3-yl]-2-[6-(3,3-difluoro-pyrrolidin-1-yl)-pyridin-3-yl]-acetamide], for which the IC50 is 0.137 µM.
The figure for `N#Cc1ccc(Cn2ccc(NC(=O)Cc3ccc(N4CCC(F)(F)C4)nc3)n2)cc1` [Example 121, N-[1-(4-Cyano-benzyl)-1H-pyrazol-3-yl]-2-[6-(3,3-difluoro-pyrrolidin-1-yl)-pyridin-3-yl]-acetamide] is 0.068 µM; for `O=C(Cc1ccc(N2CCC(F)(F)C2)nc1)Nc1ccn(Cc2ccc(F)cc2)n1` [Example 122, 2-[6-(3,3-Difluoro-pyrrolidin-1-yl)-pyridin-3-yl]-N-[1-(4-fluoro-benzyl)-1H-pyrazol-3-yl]-acetamide] it is 0.019 µM.
With `CCN(CC)c1ccc(CC(=O)Nc2ccn(Cc3ccc(C#N)cn3)n2)cn1` [Example 123, N-[1-(5-Cyano-pyridin-2-ylmethyl)-1H-pyrazol-3-yl]-2-(6-diethylamino-pyridin-3-yl)-acetamide], the half-inhibitory concentration (IC50) was 1.27 µM.
On to `CCN(CC)c1ccc(CC(=O)Nc2ccn(Cc3ccc(F)c(F)c3)n2)cn1` [Example 124, 2-(6-Diethylamino-pyridin-3-yl)-N-[1-(3,4-difluoro-benzyl)-1H-pyrazol-3-yl]-acetamide], for which the half-inhibitory concentration (IC50) amounted to 0.0099 µM.
The figure for `COCCN(C)c1ccc(CC(=O)Nc2ccn(Cc3ccc(OC)cc3)n2)cc1` [Example 125, N-[1-(4-Methoxy-benzyl)-1H-pyrazol-3-yl]-2-{4-[(2-methoxy-ethyl)-methyl-amino]-phenyl}-acetamide] is 0.064 µM.
Take `COCCN(C)c1ccc(CC(=O)Nc2ccn(Cc3ccc(F)c(F)c3)n2)cc1` [Example 126]: the IC50 is 0.0034 µM.
For the compound `COCCN(C)c1ccc(CC(=O)Nc2ccn(Cc3ccc(C#N)cc3)n2)cc1` [Example 127, N-[1-(4-Cyano-benzyl)-1H-pyrazol-3-yl]-2-{4-[(2-methoxy-ethyl)-methyl-amino]-phenyl}-acetamide], the concentration for half-maximal inhibition (IC50) was 0.027 µM.
The figure for `COCCN(C)c1ccc(CC(=O)Nc2ccn(Cc3ccc(F)cc3)n2)cc1` [Example 128, N-[1-(4-Fluoro-benzyl)-1H-pyrazol-3-yl]-2-{4-[(2-methoxy-ethyl)-methyl-amino]-phenyl}-acetamide] is 0.0097 µM.
For the compound `CCN(C)c1ccc(CC(=O)Nc2ccn(Cc3ccc(OC)cc3)n2)cc1` [Example 129, 2-[4-(Ethyl-methyl-amino)-phenyl]-N-[1-(4-methoxy-benzyl)-1H-pyrazol-3-yl]-acetamide], the IC50 amounted to 0.128 µM.
The value for `CCN(C)c1ccc(CC(=O)Nc2ccn(Cc3ccc(F)c(F)c3)n2)cc1` [Example 130, N-[1-(3,4-Difluoro-benzyl)-1H-pyrazol-3-yl]-2-[4-(ethyl-methyl-amino)-phenyl]-acetamide] was 0.293 µM; that for `COc1ccc(Cn2ccc(NC(=O)Cc3ccc(C(C)C)cc3)n2)nc1` [Example 131, 2-(4-Isopropyl-phenyl)-N-[1-(5-methoxy-pyridin-2-ylmethyl)-1H-pyrazol-3-yl]-acetamide] was 0.088 µM.
For the compound `Cc1nc(Cn2ccc(NC(=O)Cc3ccc(C(C)C)cc3)n2)ccc1C#N` [Example 132, N-[1-(5-Cyano-6-methyl-pyridin-2-ylmethyl)-1H-pyrazol-3-yl]-2-(4-isopropyl-phenyl)-acetamide], the half-maximal inhibitory concentration (IC50) amounted to 0.051 µM.
As to `CC(C)c1ccc(CC(=O)Nc2ccn(Cc3ccc(C#N)c(C4CC4)n3)n2)cc1` [Example 133, N-[1-(5-Cyano-6-cyclopropyl-pyridin-2-ylmethyl)-1H-pyrazol-3-yl]-2-(4-isopropyl-phenyl)-acetamide], the half-maximal inhibitory concentration (IC50) worked out at 0.191 µM.
The value for `CC(C)Cc1nc(Cn2ccc(NC(=O)Cc3ccc(C(C)C)cc3)n2)ccc1C#N` [Example 134, N-[1-(5-Cyano-6-isobutyl-pyridin-2-ylmethyl)-1H-pyrazol-3-yl]-2-(4-isopropyl-phenyl)-acetamide] was 0.428 µM; that for `Cc1nc2ccc(CC(=O)Nc3ccn(Cc4ccc(F)c(F)c4)n3)cc2[nH]1` [Example 135, N-[1-(3,4-Difluoro-benzyl)-1H-pyrazol-3-yl]-2-(2-methyl-3H-benzoimidazol-5-yl)-acetamide] was 0.247 µM; that for `Cc1nc2ccc(CC(=O)Nc3ccn(Cc4ccc(C#N)cc4)n3)cc2[nH]1` [Example 136, N-[1-(4-Cyano-benzyl)-1H-pyrazol-3-yl]-2-(2-methyl-3H-benzoimidazol-5-yl)-acetamide] was 1.57 µM.
As for `Cc1nc2ccc(CC(=O)Nc3ccn(Cc4ccc(F)cc4)n3)cc2[nH]1` [Example 137, N-[1-(4-Fluoro-benzyl)-1H-pyrazol-3-yl]-2-(2-methyl-3H-benzoimidazol-5-yl)-acetamide], the IC50 is 0.313 µM.
The value for `N#Cc1ccc(Cn2ccc(NC(=O)Cc3ccc(N4CC[C@@H](F)C4)nc3)n2)nc1` [Example 138, N-[1-(5-Cyano-pyridin-2-ylmethyl)-1H-pyrazol-3-yl]-2-[6-((R)-3-fluoro-pyrrolidin-1-yl)-pyridin-3-yl]-acetamide] was 0.756 µM; that for `N#Cc1ccc(Cn2ccc(NC(=O)Cc3ccc(N4CC[C@@H](F)C4)nc3)n2)cc1` [Example 140, N-[1-(4-Cyano-benzyl)-1H-pyrazol-3-yl]-2-[6-((R)-3-fluoro-pyrrolidin-1-yl)-pyridin-3-yl]-acetamide] was 0.176 µM.
